Assay results as given in patent publication US20100227844A1, “CANNABINOID-1 RECEPTOR MODULATORS USEFUL FOR THE TREATMENT OF ALZHEIMER'S DISEASE” (priority 2007, published 2010).
pEC50, pIC50: −log10 of the molar value.

Experiments:
[1] = molecular target: recombinant human CB1 receptor (Homo sapiens, UniProt P21554); test: Cannabinoid Receptor-1 (CB1) Binding (IC50) Assay; settings: [3H]CP-55940 0.6 nM, CHO cell membranes
[2] = molecular target: recombinant human CB1 receptor expressed in CHO cells (Homo sapiens, UniProt P21554); test: Cannabinoid Receptor-1 (CB1) Functional Activity (EC50) Assay; type: cell-based; settings: forskolin-stimulated intracellular cAMP
recombinant human CB1 receptor expressed in CHO cells, sequence (P21554 whole entry): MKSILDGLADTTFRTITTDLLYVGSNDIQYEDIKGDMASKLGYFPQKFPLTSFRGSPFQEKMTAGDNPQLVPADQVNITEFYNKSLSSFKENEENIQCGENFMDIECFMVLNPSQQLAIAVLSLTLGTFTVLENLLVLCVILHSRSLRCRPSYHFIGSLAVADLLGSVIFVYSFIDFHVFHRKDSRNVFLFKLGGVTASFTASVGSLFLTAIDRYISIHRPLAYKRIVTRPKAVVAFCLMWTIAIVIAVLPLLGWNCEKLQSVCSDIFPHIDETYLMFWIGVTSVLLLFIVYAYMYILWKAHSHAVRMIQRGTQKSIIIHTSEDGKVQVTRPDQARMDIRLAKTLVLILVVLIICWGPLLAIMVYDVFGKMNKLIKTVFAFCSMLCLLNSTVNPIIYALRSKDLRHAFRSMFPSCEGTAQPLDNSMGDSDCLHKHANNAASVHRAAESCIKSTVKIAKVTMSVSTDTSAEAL

[3] = system: mice; settings: Mazzola et al.; cited from earlier work
[4] = system: rodent models; settings: naïve as well as scopolamine or Aβ-treated rodent models; Terranova et al.; cited from earlier work
[5] = system: rodent model of episodic memory; settings: in combination with Donepezil; Wise et al.; cited from earlier work

recombinant human CB1 receptor, sequence (P21554 whole entry): as above

Structure (SMILES): CC(NC(=O)C(C)(C)Oc1ccccn1)C(Cc1ccc(Cl)cc1)c1cc(F)cc(F)c1 (single isomer, unassigned) [Example I-25, N-[3-(4-Chloro-phenyl)-2-(3,5-difluorophenyl)-1-methylpropyl]-2-methyl-2-(2-pyridyloxy)-propanamide]
- pIC50 [1]: 9.35
- pEC50 [2]: 8.88

Structure (SMILES): CC(NC(=O)C(C)(C)Oc1ccc(C(F)(F)F)cn1)C(Cc1ccc(Cl)cc1)c1cncc(C#N)c1 (single isomer, unassigned) [Example I-39, N-[3-(4-Chloro-phenyl)-2-(5-cyano-3-pyridyl)-1-methylpropyl]-2-(5-trifluoromethyl-2-pyridyloxy)-2-methylpropanamide]
- pIC50 [1]: 8.52
- pEC50 [2]: 8.82

Structure (SMILES): CC(C)CC(c1cccc(C#N)c1)C(C)NC(=O)C(C)(C)Oc1ccc(C(F)(F)F)cn1 (single isomer, unassigned) [Example I-60, N-(2-(3-cyano-phenyl)-1,4-dimethylpentyl)-2-methyl-2((5-(trifluoromethyl)-pyridin-2-yl)oxy)-propanamide]
- pIC50 [1]: 8.86
- pEC50 [2]: 8.70

Structure (SMILES): CC(NC(=O)C(C)(C)Oc1ccc(C(F)(F)F)cn1)C(CC1CCCC1)c1cccc(C#N)c1 (single isomer, unassigned) [Example I-62, N-(2-(3-cyano-phenyl)-3-cyclopentyl-1-methylpropyl)-2-methyl-2((5-(trifluoromethyl)-pyridin-2-yl)oxy)-propanamide]
- pIC50 [1]: 9.48
- pEC50 [2]: 8.70

Structure (SMILES): CC(NC(=O)C(C)(C)Oc1ccccn1)C(Cc1ccc(Cl)cc1)c1ccccc1 (stereo not drawn) [Example I-6, N-[3-(4-Chloro-phenyl)-1-methyl-2-phenylpropyl]-2-(2-pyridyloxy)-2-methylpropanamide]
- pIC50 [1]: 8.64
- pEC50 [2]: 8.68

Structure (SMILES): CC(NC(=O)C(C)(C)Oc1cc(C(F)(F)F)ncn1)C(Cc1ccc(Cl)cc1)c1cccc(C#N)c1 (stereo not drawn) [Example I-36, N-[3-(4-Chloro-phenyl)-2-(3-cyanophenyl)-1-methylpropyl]-2-(6-trifluoromethyl-4-pyrimidyloxy)-2-methylpropanamide]
- pIC50 [1]: 9.18
- pEC50 [2]: 8.90

Structure (SMILES): CC(NC(=O)C(C)(C)Oc1ccc(Cl)cn1)C(Cc1ccc(Cl)cc1)c1ccsc1 (stereo not drawn) [Example I-59]
- pIC50 [1]: 8.14
- pEC50 [2]: 7.85

Structure (SMILES): CC(NC(=O)C(C)(C)Oc1ccc(C(F)(F)F)cn1)C(Cc1ccc(Cl)cc1)c1cc(C#N)c[n+]([O-])c1 (stereo not drawn) [Example I-64]
- pIC50 [1]: 7.53
- pEC50 [2]: 7.89

Structure (SMILES): CC(C)(F)[C@H](c1cc(F)cc(C#N)c1)C1CN([C@@H](c2ccc(C#N)cc2)c2cccc(C#N)c2)C1 [II]
- pIC50 [1]: 8.52
- pEC50 [2]: 8.70

Structure (SMILES): Cc1c(C(=O)NN2CCCCC2)nn(-c2ccc(Cl)cc2Cl)c1-c1ccc(Cl)cc1 [SR 141716]
- effect on memory deficit induced by Aβ-administration [3]: improves the memory deficit

Structure (SMILES): Cc1c(C(=O)NN2CCCCC2)nn(-c2ccc(Cl)cc2Cl)c1-c1ccc(Cl)cc1 [rimonabant]
- effect on learning and memory performance [4]: improves learning and memory performance
- effect on cognition scores [5]: additive effects on cognition scores
